Test results reported in US20050222264A1, “Anti-rhinovirus active agents” (UNIHART CORPORATION, priority 2002, published 2005).

Tests used:
Assay type in all cases: cell-based, Human Rhinoviruses
Details in all cases: count after 3 days
Rhinovirus M Strain = assay: Plaques assay on cell mono-layers, Rhinovirus M strain, MKC-5
Method: (§1) The activity of the above compounds was evaluated in a plaque inhibition assay carried out on mono-layers of kidney cells from Rhesus monkey and from WI38 and Ohio-HeLa human cells, suitable for the propagation of Rhinoviruses M and H strains respectively. In this assay, the addition to the culture medium of an agent able to impede the viral penetration in the cells reduces the formation of microplaques compared with an untreated control culture. Therefore, the effectiveness of the test compound can be determined by counting the microplaques in treated and non-treated cultures after exposure to the virus.
(§2) • 1. prepare confluent kidney cell mono-layers from Rhesus monkeys and from human cell lines (WI 38, MRC-5 and Ohio-Hela cells) in 6.75 cm Ø Petri dishes; • 2. aspirate the growth medium; • 3. wash each dish with 10 ml of culture medium (serum-free growth medium), Earle's saline solution—lactoalbumine hydrolysate and incubate at 33° C. for 60′; • 4. aspirate the liquid; • 5. prepare serial 1:10 viral dilutions (Rhinovirus-strain M and Rhinovirus-strain H) in Earle's saline solution—lactoalbumine hydrolysate and inoculate each dish with 0.2 ml volumes of viral dilution. Each viral dilution is inoculated in duplicate. • 6. Prepare analogous serial viral dilutions (as in 5) in Earle's saline solution—lactoalbumine hydrolysate, added with the anti-viral test compound at the desired concentration. • 7. Prepare Earle's saline solution—lactoalbumine hydrolysate added with the test anti-viral compound at the desired concentration as the control (one control for each test compound). • 8. incubate the infected mono-layers at 33° C. for 60′, gently rocking the dishes at 15′ intervals in order to evenly distribute the inoculum; • 9. place the dishes on a flat surface; • 10. thoroughly add 10 ml of nutritive agar in Earle's saline solution—calf serum, equilibrated at 44° C., to each dish and allow to harden. […]

Rhinovirus H Strain [1] = assay: Plaques assay on cell mono-layers, Rhinovirus H strain, Ohio-HeLa
Method: as §1, §2

Rhinovirus H Strain [2] = assay: Plaques assay on cell mono-layers, Rhinovirus H strain, WI38
Method: as §1
• 1. prepare confluent kidney cell mono-layers from Rhesus monkeys and from human cell lines (WI 38, MRC-5 and Ohio-Hela cells) in 6.75 cm Ø Petri dishes; • 2. aspirate the growth medium; • 3. wash each dish with 10 ml of culture medium (serum-free growth medium), Earle's saline solution—lactoalbumine hydrolysate and incubate at 33° C. for 60′; • 4. aspirate the liquid; • 5. prepare serial 1:10 viral dilutions (Rhinovirus-strain M and Rhinovirus-strain H) in Earle's saline solution—lactoalbumine hydrolysate and inoculate each dish with 0.2 ml volumes of viral dilution. Each viral dilution is inoculated in duplicate. • 6. […]

[3] = dilution of inoculated virus 10^−3, same molar concentration of a 12.5 γ/ml xenaldial solution
[4] = dilution of inoculated virus 10^−4, same molar concentration of a 12.5 γ/ml xenaldial solution
[5] = dilution of inoculated virus 10^−5, same molar concentration of a 12.5 γ/ml xenaldial solution

CCOC(Nc1ccc(C(=O)O)cc1)C(=O)c1ccc(-c2ccccc2)cc1 (stereo not drawn) [Xenalamine, p-(α-ethoxy-p-phenyl-phenacylamino)-benzoic acid, reference compound]
n° of plaques in 2 dishes (Rhinovirus M Strain; [3]): 4 | n° of plaques in 2 dishes (Rhinovirus M Strain; [4]): 2 | n° of plaques in 2 dishes (Rhinovirus M Strain; [5]): 1 | n° of plaques in 2 dishes (Rhinovirus H Strain [1]; [3]): 2 | n° of plaques in 2 dishes (Rhinovirus H Strain [1]; [4]): 1 | n° of plaques in 2 dishes (Rhinovirus H Strain [1]; [5]): 1 | n° of plaques in 2 dishes (Rhinovirus H Strain [2]; [3]): 3 | n° of plaques in 2 dishes (Rhinovirus H Strain [2]; [4]): 1
